Results taken from PubChem BioAssay (NCI).
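Growth conditions: 96-well plates. Treatment: test compound, 48 hours, 5 concentrations. Analysis: linear interpolation between bracketing concentrations; unreached endpoints set to highest concentration. At the TGI there is no net growth.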

Legend:
Experiment in all cases: NCI-60 cell line screen, 48 h
[1] = system: SF-268 CNS
[2] = system: OVCAR-8 ovarian
[3] = system: MOLT-4 leukemia
[4] = system: NCI-H522 lung
[5] = system: HT29 colon
[6] = system: MCF7 breast
[7] = system: SW-620 colon
[8] = system: SNB-19 CNS
[9] = system: IGROV1 ovarian
[10] = system: KM12 colon
[11] = system: MDA-N
[12] = system: HCT-15 colon
[13] = system: CCRF-CEM leukemia
[14] = system: HOP-92 NSCLC
[15] = system: EKVX NSCLC
[16] = system: SNB-75 CNS
[17] = system: BT-549 breast
[18] = system: MALME-3M melanoma
[19] = system: UACC-62 melanoma
[20] = system: SK-MEL-5 melanoma
[21] = system: HCT-116 colon
[22] = system: HS 578T breast
[23] = system: 786-0 renal
[24] = system: ACHN renal
[25] = system: COLO 205 colon
[26] = system: SF-295 CNS
[27] = system: OVCAR-3 ovarian
[28] = system: NCI/ADR-RES ovarian
[29] = system: UACC-257 melanoma
[30] = system: HL-60(TB) leukemia
[31] = system: A549 NSCLC
[32] = system: M14 melanoma
[33] = system: SN12C renal
[34] = system: OVCAR-5 ovarian
[35] = system: T-47D breast
[36] = system: SR leukemia
[37] = system: TK-10 renal
[38] = system: NCI-H226 lung
[39] = system: NCI-H460 lung
[40] = system: RPMI-8226 leukemia
[41] = system: DU-145 prostate
[42] = system: LOX IMVI melanoma
[43] = system: UO-31 renal
[44] = system: K-562 leukemia
[45] = system: NCI-H23 lung
[46] = system: OVCAR-4 ovarian
[47] = system: HOP-62 NSCLC
[48] = system: PC-3 prostate
[49] = system: MDA-MB-435
[50] = system: CAKI-1 renal
[51] = system: SK-MEL-28 melanoma
[52] = system: SK-OV-3 ovarian
[53] = system: SK-MEL-2 melanoma
[54] = system: U251 CNS
[55] = system: MDA-MB-231 breast
[56] = system: SF-539 CNS
[57] = system: RXF 393 renal
[58] = system: A498 renal

## CC1(C)C(OC(=O)c2ccccc2)C[C@]23CCC[C@](C)(C[C@@H](O)C12)C3 (stereo partly drawn)
[1]
  TGI: 59.5 µM
[2]
  TGI: 36.2 µM
[3]
  TGI: 33.7 µM
[4]
  TGI: 31.4 µM
[5]
  TGI: 31.4 µM
[6]
  TGI: 30.6 µM
[7]
  TGI: 27.9 µM
[8]
  TGI: 47.8 µM
[9]
  TGI: 36.3 µM
[10]
  TGI: 32.1 µM
[11]
  TGI: 36.8 µM
[12]
  TGI: 37.1 µM
[13]
  TGI: 37.4 µM
[14]
  TGI: 32.5 µM
[15]
  TGI: 36.8 µM
[16]
  TGI: 34.8 µM
[17]
  TGI: 30.3 µM
[18]
  TGI: 38.5 µM
[19]
  TGI: 29 µM
[20]
  TGI: 25.8 µM
[21]
  TGI: 29.1 µM
[22]
  TGI: 40.4 µM
[23]
  TGI: 35.7 µM
[24]
  TGI: 31.9 µM
[25]
  TGI: 33.6 µM
[26]
  TGI: 28.1 µM
[27]
  TGI: 78.9 µM
[28]
  TGI: 46.7 µM
[29]
  TGI: 35.5 µM
[30]
  TGI: > 100 µM
[31]
  TGI: 34.1 µM
[32]
  TGI: 38.9 µM
[33]
  TGI: 34.6 µM
[34]
  TGI: 28.6 µM
[35]
  TGI: 43.7 µM
[36]
  TGI: > 100 µM
[37]
  TGI: 91.6 µM
[38]
  TGI: 37.5 µM
[39]
  TGI: 31.3 µM
[40]
  TGI: > 100 µM
[41]
  TGI: 52.4 µM
[42]
  TGI: 38.9 µM
[43]
  TGI: 35.6 µM
[44]
  TGI: 54.8 µM
[45]
  TGI: 34 µM
[46]
  TGI: 46.6 µM
[47]
  TGI: 63.4 µM
[48]
  TGI: 28.1 µM
[49]
  TGI: 32.2 µM
[50]
  TGI: 40.8 µM
[51]
  TGI: 29.8 µM
[52]
  TGI: > 100 µM
[53]
  TGI: 35.8 µM

## COc1ccc(-c2cc(-c3cc(F)c(Cl)cc3Cl)[nH]n2)cc1OC
[1]
  TGI: > 100 µM
[2]
  TGI: > 100 µM
[3]
  TGI: > 100 µM
[4]
  TGI: 81.8 µM
[5]
  TGI: 76.6 µM
[54]
  TGI: > 100 µM
[7]
  TGI: 74.2 µM
[8]
  TGI: > 100 µM
[9]
  TGI: > 100 µM
[10]
  TGI: > 100 µM
[11]
  TGI: > 100 µM
[12]
  TGI: > 100 µM
[13]
  TGI: 75.9 µM
[14]
  TGI: 67.8 µM
[15]
  TGI: > 100 µM
[16]
  TGI: 61.5 µM
[17]
  TGI: > 100 µM
[18]
  TGI: > 100 µM
[20]
  TGI: 47.3 µM
[21]
  TGI: 83.6 µM
[22]
  TGI: > 100 µM
[23]
  TGI: 42.4 µM
[24]
  TGI: 30.4 µM
[25]
  TGI: 47 µM
[26]
  TGI: 73.7 µM
[55]
  TGI: > 100 µM
[27]
  TGI: 41.3 µM
[28]
  TGI: > 100 µM
[29]
  TGI: > 100 µM
[30]
  TGI: 55 µM
[31]
  TGI: > 100 µM
[32]
  TGI: > 100 µM
[33]
  TGI: 62.9 µM
[34]
  TGI: > 100 µM
[35]
  TGI: > 100 µM
[56]
  TGI: 37.3 µM
[36]
  TGI: 43.8 µM
[37]
  TGI: > 100 µM
[38]
  TGI: 52.5 µM
[39]
  TGI: > 100 µM
[40]
  TGI: 41 µM
[41]
  TGI: > 100 µM
[42]
  TGI: 42.1 µM
[43]
  TGI: > 100 µM
[44]
  TGI: > 100 µM
[45]
  TGI: > 100 µM
[57]
  TGI: 43.8 µM
[46]
  TGI: > 100 µM
[47]
  TGI: > 100 µM
[48]
  TGI: 79.1 µM
[49]
  TGI: > 100 µM
[50]
  TGI: > 100 µM
[51]
  TGI: > 100 µM
[52]
  TGI: > 100 µM
[53]
  TGI: > 100 µM

## NNC1=N/C(=C\c2ccccc2O)C(=O)N1
[1]
  TGI: > 100 µM
[2]
  TGI: > 100 µM
[3]
  TGI: > 100 µM
[4]
  TGI: > 100 µM
[5]
  TGI: > 100 µM
[54]
  TGI: > 100 µM
[7]
  TGI: > 100 µM
[8]
  TGI: > 100 µM
[9]
  TGI: > 100 µM
[10]
  TGI: > 100 µM
[11]
  TGI: > 100 µM
[12]
  TGI: > 100 µM
[13]
  TGI: 51.9 µM
[14]
  TGI: > 100 µM
[15]
  TGI: > 100 µM
[16]
  TGI: > 100 µM
[17]
  TGI: > 100 µM
[18]
  TGI: > 100 µM
[19]
  TGI: > 100 µM
[20]
  TGI: > 100 µM
[21]
  TGI: > 100 µM
[22]
  TGI: > 100 µM
[23]
  TGI: > 100 µM
[24]
  TGI: > 100 µM
[25]
  TGI: 77.3 µM
[26]
  TGI: > 100 µM
[55]
  TGI: > 100 µM
[27]
  TGI: > 100 µM
[28]
  TGI: > 100 µM
[29]
  TGI: > 100 µM
[30]
  TGI: 49.6 µM
[31]
  TGI: > 100 µM
[32]
  TGI: > 100 µM
[33]
  TGI: > 100 µM
[34]
  TGI: > 100 µM
[35]
  TGI: 89.4 µM
[56]
  TGI: > 100 µM
[37]
  TGI: > 100 µM
[38]
  TGI: > 100 µM
[39]
  TGI: > 100 µM
[40]
  TGI: > 100 µM
[58]
  TGI: > 100 µM
[41]
  TGI: > 100 µM
[42]
  TGI: > 100 µM
[43]
  TGI: > 100 µM
[44]
  TGI: > 100 µM
[45]
  TGI: > 100 µM
[57]
  TGI: > 100 µM
[47]
  TGI: > 100 µM
[48]
  TGI: > 100 µM
[49]
  TGI: > 100 µM
[50]
  TGI: > 100 µM
[51]
  TGI: > 100 µM
[52]
  TGI: > 100 µM
[53]
  TGI: > 100 µM
